According to PMC5127184 (Scientific Reports, 2016):
“Also recorded” adds a separate entry of the source. Ends that are not written are not given here.

Experiments:
DPP-4 [1] = experiment: Cleavage by purified human DPP-4 (RP-HPLC); format: in vitro ADME; details: human, isolated enzyme dpp iv, 30 μM peptide, DPP-4 3 U/L, 0.1 M sodium phosphate pH 7.4, 37 °C, UV 215.8 nm, n = 3, read-out: Time to 50% reduction of intact peptide with purified human DPP-4
Protocol: (§1) Samples were analysed by RP-HPLC with solvent A (0.1% TFA in water) and B (80% acetonitrile in 0.1% aqueous TFA) at a flow rate of 0.5 ml/min.

pGLP-1R [2] = experiment: Intracellular Ca2+ mobilization, FlpInCHO-pGLP-1R cells; format: cell-based, platypus; details: normalized to 100 μM ATP, means ± S.E.M. of at least three experiments in triplicate
Protocol: (§2) Human and pGLP-1R cDNAs were isogenically integrated into FlpIn-Chinese hamster ovary (FlpInCHO) cells (Invitrogen) and selection of receptor-expressing cells accomplished by treatment with 600 μg/ml hygromycin B as described previously. Transfected and parental FlpInCHO cells were maintained in DMEM supplemented with 10% heat-inactivated FBS and incubated in a humidified environment at 37 °C in 5% CO2.
(§3) FlpInCHO-hGLP-1R and FlpInCHO-pGLP-1R cells were seeded at a density of 3 × 10^4 cells/well into 96-well culture plates and incubated overnight at 37 °C in 5% CO2 and receptor-mediated intracellular Ca^2+ mobilization determined as described previously.
(§4) All data were analysed in Prism 6.0c (GraphPad Software Inc., San Diego, CA). Concentration response signalling data were analysed using a three-parameter logistic equation as described previously. Signalling bias was analysed as described. Briefly, quantification of signal bias was performed using pharmacologically derived parameters of agonist affinity (Ka) and efficacy (tau) for each ligand in each of the three signalling pathways (cAMP accumulation, ERK1/2 phosphorylation, Intracellular Ca^2+ mobilisation). […] Data are presented on a log scale.

INS-1 (832/13) cells = experiment: cAMP accumulation, INS-1 (832/13) cells; format: cell-based; details: normalized to forskolin response, means ± S.E.M. of at least three experiments in triplicate
pGLP-1R [3] = experiment: Radioligand competition binding, FlpInCHO-pGLP-1R cells; design: species or system platypus; details: competition with 125I-hGLP-1 (7–36), 0.15 nM, FlpInCHO cells stably expressing pGLP-1R, overnight 4 °C; means ± S.E.M. of two or three experiments in triplicate
Protocol: as §2
Cells were then incubated overnight at 4 °C, followed by three washes with ice-cold 1 × PBS to remove unbound radioligand. Cells were then lysed in 0.1 M NaOH, and radioactivity determined by γ-counting as described previously.
as §4

[4] = 12.5% echidna serum in 100 mM sodium phosphate buffer (PH 7.4), 150 mM NaCl, 0.2% Tween-20; details: 37 °C, up to 4 h
[5] = 12.5% human serum in 100 mM sodium phosphate buffer (PH 7.4), 150 mM NaCl, 0.2% Tween-20; details: 37 °C, up to 4 h
[6] = 12.5% platypus serum in 100 mM sodium phosphate buffer (PH 7.4), 150 mM NaCl, 0.2% Tween-20; details: 37 °C, up to 4 h
[7] = purified human serum in the presence of DPP-4 inhibitor P32/98; details: 37 °C, up to 11 h
echidna serum = details: 37 °C, up to seven hours
[8] = albumin-depleted human serum (purified by DEAE Affi-Gel Blue Cartridges); details: 37 °C, up to 11 h
DPP-4 [9] = experiment: DPP-4 (3 U/L) in sodium phosphate buffer (0.1 M, pH 7.4); details: human, 37 °C, up to 120 min
hGLP-1R [10] = target: T1, hGLP-1R (Homo sapiens, UniProt P43220); experiment: Radioligand competition binding, FlpInCHO-hGLP-1R cells
T1 construct: expressed in transfected cells
Protocol: as §2, with “CO2. INS-1(832/13) cells were cultured in RPMI-1640 medium supplemented with 10 mM HEPES, 10% heat-inactivated FBS, 2 mM L-glutamine, 1 mM sodium pyruvate, 0.05 mM β-mercaptoethanol, 100 iU/ml penicillin, and 100 µg/ml streptomycin at 37 °C in a humidified 5% CO2 atmosphere.” for “CO2.”
FlpInCHO-hGLP-1R and FlpInCHO-pGLP-1R cells were seeded at a density of 3 × 10^4 cells/well and INS-1(832/13) cells at 10^5 cells/well into 96-well culture plates and incubated overnight at 37 °C in 5% CO2. […] Cells were then lysed in 0.1 M NaOH, and radioactivity determined by γ-counting as described previously.
All data were analysed in Prism 6.0c (GraphPad Software Inc., San Diego, CA). Concentration response signalling data were analysed using a three-parameter logistic equation as described previously. Signalling bias was analysed as described. […] The transduction ratio (tau/Ka) was extracted from standard concentration-response data that was analysed with the operational model of agonism (Kenakin & Christopoulos 2012). […]

hGLP-1R [11] = target: T1, hGLP-1R; experiment: ERK1/2 phosphorylation, FlpInCHO-hGLP-1R cells; format: cell-based
Protocol: as §2
FlpInCHO-hGLP-1R and FlpInCHO-pGLP-1R cells were seeded at a density of 3 × 10^4 cells/well into 96-well culture plates and incubated overnight at 37 °C in 5% CO2. Receptor-mediated ERK1/2 phosphorylation was determined as previously described.
as §4

hGLP-1R [12] = target: T1, hGLP-1R; experiment: Intracellular Ca2+ mobilization, FlpInCHO-hGLP-1R cells; format: cell-based
Protocol: as §2, §3, §4

in vitro [13] = format: in vitro ADME, echidna; details: 7 μM peptide, 37 °C; for Uncleaved peptide remaining after 11 hours in echidna serum: RP-HPLC, sentence covers platypus and echidna sera; for remaining at 11 h, 7 μM: echidna, 11 h incubation, serum purified by DEAE Affi-Gel Blue, RP-HPLC area under the curve of intact peptide, means ± S.E.M. of three experiments in triplicate
Protocol: (§5) Aliquots were analysed by RP-HPLC. Human serum was from the author Briony Forbes and provided with informed consent. We confirm that all methods for these studies were carried out in accordance with relevant guidelines and regulations, and all experimental protocols satisfy the Adelaide University Human Research Ethics Committee criteria as being “negligible risk research”.

hGLP-1R [14] = target: T1, hGLP-1R; experiment: cAMP accumulation, FlpInCHO-hGLP-1R cells; format: cell-based
Protocol: as §2, with “CO2. INS-1(832/13) cells were cultured in RPMI-1640 medium supplemented with 10 mM HEPES, 10% heat-inactivated FBS, 2 mM L-glutamine, 1 mM sodium pyruvate, 0.05 mM β-mercaptoethanol, 100 iU/ml penicillin, and 100 µg/ml streptomycin at 37 °C in a humidified 5% CO2 atmosphere. […]” for “CO2.”
All data were analysed in Prism 6.0c (GraphPad Software Inc., San Diego, CA). Concentration response signalling data were analysed using a three-parameter logistic equation as described previously. Signalling bias was analysed as described. Briefly, quantification of signal bias was performed using pharmacologically derived parameters of agonist affinity (Ka) and efficacy (tau) for each ligand in each of the three signalling pathways (cAMP accumulation, ERK1/2 phosphorylation, Intracellular Ca^2+ mobilisation). The transduction ratio (tau/Ka) was extracted from standard concentration-response data that was analysed with the operational model of agonism (Kenakin & Christopoulos 2012). […]

in vitro [15] = format: in vitro ADME, platypus; details: 37 °C; for Effect of DPP-4 inhibitor P32/98 on degradation in platypus serum (in words): 100 μM P32/98, 7 μM peptide, RP-HPLC; for remaining at 11 h, 7 μM: platypus, 11 h incubation, 7 μM peptide, serum purified by DEAE Affi-Gel Blue, RP-HPLC area under the curve of intact peptide, means ± S.E.M. of three experiments in triplicate
Protocol: as §5

purified human DPP-4 = purified human DPP-4 (Homo sapiens, UniProt P27487); experiment: Cleavage by purified human DPP-4 (RP-HPLC); format: in vitro ADME; details: 30 μM peptide, DPP-4 3 U/L, 0.1 M sodium phosphate pH 7.4, 37 °C, 0-120 min, n = 3
Protocol: as §1

in vitro [16] = format: in vitro ADME, human; details: 7 μM peptide, 37 °C; for Stability in albumin-depleted human serum (in words): 0-11 h, RP-HPLC, n = 3; for remaining at 11 h, 7 μM: human, 11 h incubation, serum purified by DEAE Affi-Gel Blue (albumin-depleted), RP-HPLC area under the curve of intact peptide, means ± S.E.M. of three experiments in triplicate
Protocol: as §5

T1 sequence (P43220 24-463): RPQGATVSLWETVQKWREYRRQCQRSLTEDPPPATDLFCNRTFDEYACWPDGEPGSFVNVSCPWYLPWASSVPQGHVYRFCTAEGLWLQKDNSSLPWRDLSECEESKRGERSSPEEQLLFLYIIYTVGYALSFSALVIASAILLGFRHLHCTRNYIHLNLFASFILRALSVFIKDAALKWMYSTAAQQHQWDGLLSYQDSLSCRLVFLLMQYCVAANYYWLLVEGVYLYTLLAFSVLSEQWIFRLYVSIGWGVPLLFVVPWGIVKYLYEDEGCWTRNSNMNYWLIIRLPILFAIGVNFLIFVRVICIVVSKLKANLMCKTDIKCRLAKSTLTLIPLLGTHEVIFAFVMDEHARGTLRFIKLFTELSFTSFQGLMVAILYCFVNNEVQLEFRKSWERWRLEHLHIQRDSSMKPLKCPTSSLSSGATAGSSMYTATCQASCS
Chain of purified human DPP-4 (P27487 whole entry): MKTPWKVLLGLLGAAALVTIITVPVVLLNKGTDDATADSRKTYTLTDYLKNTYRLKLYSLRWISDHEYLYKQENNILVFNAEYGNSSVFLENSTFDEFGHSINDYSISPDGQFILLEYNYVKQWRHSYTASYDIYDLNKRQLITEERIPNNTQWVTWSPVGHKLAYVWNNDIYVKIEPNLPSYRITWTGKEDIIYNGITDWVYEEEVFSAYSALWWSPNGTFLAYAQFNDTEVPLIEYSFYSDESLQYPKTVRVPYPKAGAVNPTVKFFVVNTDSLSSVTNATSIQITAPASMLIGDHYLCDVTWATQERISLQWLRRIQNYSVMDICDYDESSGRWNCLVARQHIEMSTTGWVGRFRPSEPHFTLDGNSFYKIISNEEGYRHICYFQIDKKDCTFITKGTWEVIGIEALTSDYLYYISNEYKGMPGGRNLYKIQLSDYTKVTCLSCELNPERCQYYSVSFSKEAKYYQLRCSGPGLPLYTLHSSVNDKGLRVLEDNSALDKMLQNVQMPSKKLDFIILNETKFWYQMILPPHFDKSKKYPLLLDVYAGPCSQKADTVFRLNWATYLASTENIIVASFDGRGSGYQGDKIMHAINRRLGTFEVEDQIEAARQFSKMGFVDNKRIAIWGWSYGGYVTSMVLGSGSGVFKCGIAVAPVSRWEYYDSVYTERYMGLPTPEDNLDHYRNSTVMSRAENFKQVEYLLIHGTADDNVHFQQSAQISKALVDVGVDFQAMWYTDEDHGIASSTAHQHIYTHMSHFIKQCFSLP

In the case of `CC[C@H](C)[C@H](NC(=O)[C@H](Cc1ccccc1)NC(=O)[C@H](CCC(=O)O)NC(=O)[C@H](CCCCN)NC(=O)[C@H](C)NC(=O)[C@H](C)NC(=O)[C@H](CCC(N)=O)NC(=O)CNC(=O)[C@H](CCC(=O)O)NC(=O)[C@H](CC(C)C)NC(=O)[C@H](Cc1ccc(O)cc1)NC(=O)[C@H](CO)NC(=O)[C@H](CO)NC(=O)[C@@H](NC(=O)[C@H](CC(=O)O)NC(=O)[C@H](CO)NC(=O)[C@@H](NC(=O)[C@H](Cc1ccccc1)NC(=O)[C@@H](NC(=O)CNC(=O)[C@H](CCC(=O)O)NC(=O)[C@H](C)NC(=O)[C@@H](N)Cc1c[nH]cn1)[C@@H](C)O)[C@@H](C)O)C(C)C)C(=O)N[C@@H](C)C(=O)N[C@@H](Cc1c[nH]c2ccccc12)C(=O)N[C@@H](CC(C)C)C(=O)N[C@H](C(=O)N[C@@H](CCCCN)C(=O)NCC(=O)N[C@@H](CCCNC(=N)N)C(=O)NCC(=O)O)C(C)C` [hGLP-1], the half-life at 30 μM (DPP-4 [1]) is reported as at most 1 h, the “pEC50 pGLP-1R CHO Ca2+ mobilization” value (pGLP-1R [2]) is reported as 8.3 ± 0.1^& and the “pEC50 INS-1 (832/13) cAMP accumulation” value (INS-1 (832/13) cells) is reported as 9.6 ± 0.3. The “pIC50 pGLP-1R CHO” value (pGLP-1R [3]) was 8.9 ± 0.1.

With H-Ala-Pro-p-nitroanilide the cleaved bond [4] was “Pro-p-nitroanilide”, the cleaved bond [5] was “Pro-p-nitroanilide” and the cleaved bond [6] was “Pro-p-nitroanilide”.

In the case of HAEGTFTSDVSSYLEGQAAKEFIAWLVKGRG, the not cleaved [7] is reported as “remained intact (0% degraded)” and the fragment found (echidna serum) is reported as “hGLP-1 (1-22) HAEGTFTSDVSSYLEGQAAKEF”.

With HFDGVYTDYFSRYLEEKATNEFIDWLLKGQE the not cleaved [8] was 99.3 ± 1.8% after 11 h, the cleaved bond (echidna serum) was “T19-N20; also recorded: R12-Y13; also recorded: Y13-L14” and the not cleaved (DPP-4 [9]) was “not degraded by human DPP-4”.

“HFDGVYTDYFSRYLEEKATNEFIDWLLKGQE [eGLP-1]” showed an IC50 (hGLP-1R [10]) of 25.1 nM, an EC50 (hGLP-1R [11]) of 794 nM and an EC50 (hGLP-1R [12]) of 10000 nM. For the same compound, the “Uncleaved peptide remaining after 11 hours in echidna serum” value (in vitro [13]) was “less than 50%”, the remaining at 11 h, 7 μM (in vitro [13]) was 42.4 ± 4.3% and the EC50 (hGLP-1R [14]) was 126 nM. The “Effect of DPP-4 inhibitor P32/98 on degradation in platypus serum (in words)” value (in vitro [15]) was “did not alter the cleavage pattern”, the remaining at 11 h, 7 μM (in vitro [15]) was 48.3 ± 3.5% and the “Degradation by purified human DPP-4 (in words)” value (purified human DPP-4) was “not degraded”. For the same compound, the “Stability in albumin-depleted human serum (in words)” value (in vitro [16]) was “remained stable” and the remaining at 11 h, 7 μM (in vitro [16]) was 99.3 ± 1.8%.

With HSEGTFTNDVTRLLEEKATSEFIAWLLKGLE the not cleaved [8] was 96.4 ± 2.0% after 11 h, the cleaved bond (echidna serum) was “R12-L13; also recorded: L14-E15; also recorded: E16-K17; also recorded: T19-S20; also recorded: L26-L27; also recorded: K28-G29” and the not cleaved (DPP-4 [9]) was “not degraded by human DPP-4”.

For “HSEGTFTNDVTRLLEEKATSEFIAWLLKGLE [pGLP-1]”, the IC50 (hGLP-1R [10]) was 12.6 nM, the EC50 (hGLP-1R [11]) was 12.6 nM and the EC50 (hGLP-1R [12]) was 316 nM. For the same compound, the “Uncleaved peptide remaining after 11 hours in echidna serum” value (in vitro [13]) was “less than 50%”, the remaining at 11 h, 7 μM (in vitro [13]) was 49.4 ± 2.9% and the EC50 (hGLP-1R [14]) was 2 nM. For the same compound, the “Effect of DPP-4 inhibitor P32/98 on degradation in platypus serum (in words)” value (in vitro [15]) was “did not alter the cleavage pattern”, the remaining at 11 h, 7 μM (in vitro [15]) was 55.1 ± 3.5% and the “Degradation by purified human DPP-4 (in words)” value (purified human DPP-4) was “not degraded”. The “Stability in albumin-depleted human serum (in words)” value (in vitro [16]) was “remained stable” and the remaining at 11 h, 7 μM (in vitro [16]) was 96.4 ± 2%.
